From ChEMBL document CHEMBL3351473, “Synthesis and biological evaluation of α-1-C-4'-arylbutyl-L-arabinoiminofuranoses, a new class of α-glucosidase inhibitors” (Bioorg Med Chem Lett, 2014) come the findings set out here.

Test [1] deals with T1, Sucrase-isomaltase, intestinal (Rattus norvegicus, UniProt P23739). As to the kind of experiment: Inhibition of Wistar rat intestinal isomaltase assessed as inhibition of D-glucose release after 30 mins by spectrophotometry.
Test [2] deals with T1, Sucrase-isomaltase, intestinal. The test can be described thus: Inhibition of Wistar rat intestinal sucrase assessed as inhibition of D-glucose release after 30 mins by spectrophotometry.
Test [3] can be described thus: Inhibition of Wistar rat intestinal maltase assessed as inhibition of D-glucose release after 30 mins by spectrophotometry.

T1 sequence (P23739 1-1013 limits assumed): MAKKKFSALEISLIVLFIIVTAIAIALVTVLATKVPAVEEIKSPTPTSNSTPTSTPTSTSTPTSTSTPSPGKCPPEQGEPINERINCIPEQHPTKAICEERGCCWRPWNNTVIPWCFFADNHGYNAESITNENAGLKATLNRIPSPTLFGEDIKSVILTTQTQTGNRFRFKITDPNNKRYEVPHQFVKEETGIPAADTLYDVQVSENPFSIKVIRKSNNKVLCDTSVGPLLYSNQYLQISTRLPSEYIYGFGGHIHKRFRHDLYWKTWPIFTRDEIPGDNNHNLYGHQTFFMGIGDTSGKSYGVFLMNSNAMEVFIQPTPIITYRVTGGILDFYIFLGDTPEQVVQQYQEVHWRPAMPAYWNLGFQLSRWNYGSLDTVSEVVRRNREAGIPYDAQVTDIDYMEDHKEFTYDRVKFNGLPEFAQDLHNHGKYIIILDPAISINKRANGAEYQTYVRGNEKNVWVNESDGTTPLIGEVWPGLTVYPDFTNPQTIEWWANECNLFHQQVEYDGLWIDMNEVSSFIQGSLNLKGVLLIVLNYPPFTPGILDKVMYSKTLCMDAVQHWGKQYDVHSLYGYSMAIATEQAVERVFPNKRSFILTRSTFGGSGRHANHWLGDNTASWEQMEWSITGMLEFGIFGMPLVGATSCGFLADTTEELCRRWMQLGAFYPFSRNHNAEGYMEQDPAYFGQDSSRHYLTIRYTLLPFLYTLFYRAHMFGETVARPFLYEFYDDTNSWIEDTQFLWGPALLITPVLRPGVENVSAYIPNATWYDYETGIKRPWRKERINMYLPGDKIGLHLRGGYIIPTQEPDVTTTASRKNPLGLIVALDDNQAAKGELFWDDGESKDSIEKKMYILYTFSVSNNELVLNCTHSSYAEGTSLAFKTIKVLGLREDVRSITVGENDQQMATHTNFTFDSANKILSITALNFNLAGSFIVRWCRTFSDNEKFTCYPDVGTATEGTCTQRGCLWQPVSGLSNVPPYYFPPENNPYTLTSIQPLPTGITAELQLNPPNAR
T1 sequence (P23739 1014-1841 limits assumed): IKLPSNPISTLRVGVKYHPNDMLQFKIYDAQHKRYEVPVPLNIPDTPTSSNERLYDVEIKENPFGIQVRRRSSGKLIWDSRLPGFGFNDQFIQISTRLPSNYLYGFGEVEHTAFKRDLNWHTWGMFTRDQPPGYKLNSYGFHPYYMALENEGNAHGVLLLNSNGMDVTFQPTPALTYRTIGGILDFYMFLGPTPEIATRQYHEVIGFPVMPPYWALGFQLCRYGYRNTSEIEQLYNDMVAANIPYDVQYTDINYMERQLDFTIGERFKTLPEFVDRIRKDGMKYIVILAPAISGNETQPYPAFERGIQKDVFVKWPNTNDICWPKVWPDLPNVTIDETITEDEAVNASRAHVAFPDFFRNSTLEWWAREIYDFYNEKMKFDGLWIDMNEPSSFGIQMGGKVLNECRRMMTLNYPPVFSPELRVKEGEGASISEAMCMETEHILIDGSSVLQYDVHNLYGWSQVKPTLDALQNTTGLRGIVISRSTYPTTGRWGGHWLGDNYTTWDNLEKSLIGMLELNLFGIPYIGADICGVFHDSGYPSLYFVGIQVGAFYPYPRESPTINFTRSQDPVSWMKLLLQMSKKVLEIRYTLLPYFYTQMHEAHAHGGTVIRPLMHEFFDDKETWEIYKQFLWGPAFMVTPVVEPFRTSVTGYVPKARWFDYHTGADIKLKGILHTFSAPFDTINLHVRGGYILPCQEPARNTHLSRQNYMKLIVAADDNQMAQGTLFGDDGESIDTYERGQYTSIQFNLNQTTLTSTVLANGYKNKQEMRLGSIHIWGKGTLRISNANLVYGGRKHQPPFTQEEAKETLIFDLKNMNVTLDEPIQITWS

For `Cc1ccc(CCCC[C@@H]2N[C@@H](CO)[C@H](O)[C@H]2O)cc1`, the IC50 in test [1] turned out to be 630 nM; in test [2], 45 nM.

Regarding `COc1ccc(CCCC[C@@H]2N[C@@H](CO)[C@H](O)[C@H]2O)cc1`, the IC50 was 1800 nM in test [1] and 130 nM in test [2].

Take `OC[C@@H]1N[C@@H](CCCCc2ccc(O)cc2)[C@H](O)[C@H]1O`: the figures for the IC50 in test [1] and in test [2] were 6000 nM and 110 nM, respectively.

In the case of `OC[C@@H]1N[C@@H](CCCCc2ccccc2)[C@H](O)[C@H]1O`, in test [3], the 50% inhibitory concentration (IC50) is 220 nM.

In the case of `OC[C@@H]1N[C@@H](CCCCc2cc(F)cc(F)c2)[C@H](O)[C@H]1O`, the IC50 in test [1] worked out at 220 nM; in test [2], 26 nM.

As for `OC[C@@H]1N[C@@H](CCCCc2ccc(F)cc2)[C@H](O)[C@H]1O`, the IC50 in test [1] stood at 3000 nM; in test [2], 170 nM.

In general, IC50 refers to the concentration needed to halve the response being measured.
